The target in assay [1] is Sodium-dependent dopamine transporter (Homo sapiens, UniProt Q01959). The assay can be described thus: Inhibition of [3H]dopamine uptake at human DAT expressed in HEK293 cells. The class given is cell-based.
For assay [2], the target named is Sodium-dependent noradrenaline transporter (Homo sapiens, UniProt P23975). The experiment in a line: Inhibition of [3H]norepinephrine uptake at human NET expressed in HEK293 cells. The class given is cell-based.
Assay [3] concerns the target Neuronal acetylcholine receptor; alpha3/beta4 (Homo sapiens) (UniProt P30926+P32297). The assay can be described thus: Intrinsic activity at alpha3beta4 nAChR receptor in human SH-SY5Y cells assessed as 86Rb+ efflux at 5 to 100 uM by liquid scintillation counting. Format: cell-based.
Assay [4] has as its target Neuronal acetylcholine receptor; alpha4/beta2 (Homo sapiens) (UniProt P17787+P43681). The assay can be described thus: Intrinsic activity at human alpha4beta2 nAChR receptor expressed in human SH-SY5Y cells assessed as 86Rb+ efflux at 5 to 100 uM by liquid scintillation counting. The class given is cell-based.
Assay [5] concerns the target Neuronal acetylcholine receptor; alpha4/beta4 (Homo sapiens) (UniProt P30926+P43681). The assay can be described thus: Intrinsic activity at human alpha4beta4 nAChR receptor expressed in human SH-SY5Y cells assessed as 86Rb+ efflux at 5 to 100 uM by liquid scintillation counting. Format: cell-based.
In assay [6] the target is Acetylcholine receptor; alpha1/beta1/delta/gamma (Homo sapiens) (UniProt P02708+P07510+P11230+Q07001). The assay can be described thus: Intrinsic activity at alpha-1-beta-1-gamma-delta nAChR receptor expressed in human TE671/RD cells assessed as 86Rb+ efflux at 5 to 100 uM by liquid scintillation counting. The class given is cell-based.
The species entered for assay [7] is Mus musculus. The experiment in a line: Antinociceptive activity in ICR mouse D'Amour and Smith model of pain assessed as inhibition of nicotine-induced response by tail-flick test. Format: functional. A general note: In hot-plate and tail-flick tests a longer latency is read as antinociception.
Assay [8] is filed under the species Mus musculus. The experiment in a line: Antinociceptive activity in ICR mouse assessed as inhibition of nicotine-induced response by hotplate test. Format: functional.
For assay [9], the species on record is Mus musculus. The experiment in a line: Effect on behavioral activity in ICR mouse assessed as inhibition of nicotine-induced locomotory response by locomotor assay. Format: functional.
Assay [10] is filed under the species Mus musculus. The experiment in a line: Effect on body temperature in ICR mouse assessed as inhibition of nicotine-induced hypothermic response. Format: functional.

Data on 16 compounds can be found in ChEMBL document CHEMBL1157604 (J Med Chem, 2010).

Active and inactive are the calls of the source. The rule behind the calls is not given here.

Sodium-dependent noradrenaline transporter, sequence (P23975 whole entry): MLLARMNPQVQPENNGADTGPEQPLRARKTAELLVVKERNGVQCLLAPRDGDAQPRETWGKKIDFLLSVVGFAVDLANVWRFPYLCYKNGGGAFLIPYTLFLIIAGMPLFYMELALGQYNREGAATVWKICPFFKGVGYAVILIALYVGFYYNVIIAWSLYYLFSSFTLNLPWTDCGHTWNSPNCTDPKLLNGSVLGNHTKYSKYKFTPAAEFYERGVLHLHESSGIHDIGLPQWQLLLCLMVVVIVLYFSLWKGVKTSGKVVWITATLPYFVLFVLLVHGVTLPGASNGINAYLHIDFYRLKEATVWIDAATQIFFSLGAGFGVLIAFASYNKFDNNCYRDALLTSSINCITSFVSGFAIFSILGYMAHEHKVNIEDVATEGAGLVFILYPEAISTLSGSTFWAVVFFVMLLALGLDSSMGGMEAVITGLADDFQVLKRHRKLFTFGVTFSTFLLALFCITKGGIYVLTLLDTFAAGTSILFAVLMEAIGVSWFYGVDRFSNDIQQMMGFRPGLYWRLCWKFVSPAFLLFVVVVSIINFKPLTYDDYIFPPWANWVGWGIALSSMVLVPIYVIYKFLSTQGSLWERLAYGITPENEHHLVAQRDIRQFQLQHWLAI
Sodium-dependent dopamine transporter, sequence (Q01959 whole entry): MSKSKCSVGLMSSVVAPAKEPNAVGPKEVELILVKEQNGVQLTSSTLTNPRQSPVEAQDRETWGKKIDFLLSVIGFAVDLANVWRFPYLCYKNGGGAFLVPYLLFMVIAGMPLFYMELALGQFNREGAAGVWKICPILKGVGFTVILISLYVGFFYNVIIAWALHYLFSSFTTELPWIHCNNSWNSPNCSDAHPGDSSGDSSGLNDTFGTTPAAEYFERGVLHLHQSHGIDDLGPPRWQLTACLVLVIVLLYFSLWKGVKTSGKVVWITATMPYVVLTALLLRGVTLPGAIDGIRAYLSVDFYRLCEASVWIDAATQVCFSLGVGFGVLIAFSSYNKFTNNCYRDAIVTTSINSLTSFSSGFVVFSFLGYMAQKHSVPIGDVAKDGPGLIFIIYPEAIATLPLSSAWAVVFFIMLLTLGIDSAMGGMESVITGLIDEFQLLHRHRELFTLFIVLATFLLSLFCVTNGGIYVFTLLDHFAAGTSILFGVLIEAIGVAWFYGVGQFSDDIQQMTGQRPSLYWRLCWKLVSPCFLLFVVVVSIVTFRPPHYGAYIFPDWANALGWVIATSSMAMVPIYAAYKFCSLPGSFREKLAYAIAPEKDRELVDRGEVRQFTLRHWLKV

As for `CC(NC(C)(C)C)C(=O)c1cccc(Br)c1` (stereo not given), the IC50 – broadly, the midpoint of a concentration-inhibition curve – in assay [1] amounted to 0.511 µM; in assay [2] it was 5.6 µM. Also, the result in assay [3], in assay [4], in assay [5] and in [6] was inactive. For the same compound, the AD50 was 0.12 mg/kg in the assay listed under Mus musculus [7], 14.9 mg/kg in the assay listed under Mus musculus [8], 27.1 mg/kg in the assay filed under Mus musculus [9] and 11.5 mg/kg in the assay filed under Mus musculus [10].

Consider `CC(NC(C)(C)C)C(=O)c1cccc(Cl)c1` (stereo not given) [BUPROPION], for which the outcome in [3], in assay [4], in [5] and in assay [6] was inactive. For the same compound, the values for the AD50 in the assay filed under Mus musculus [7], in the assay listed under Mus musculus [8] and in the assay filed under Mus musculus [10] were 1.2 mg/kg, 15 mg/kg and 9.2 mg/kg, respectively.

In [1], `Cc1ccc(C(=O)C(C)NC(C)(C)C)cc1` (stereo not given) yielded an IC50 of 1.95 µM. For the same compound, the result in assay [3], in [4], in assay [5] and in assay [6] was inactive. Further, the AD50 is 0.09 mg/kg in the assay filed under Mus musculus [7], 7.75 mg/kg in the assay filed under Mus musculus [8], 11.8 mg/kg in the assay listed under Mus musculus [9] and 8.8 mg/kg in the assay filed under Mus musculus [10].

`Cc1ccc(C(=O)C(C)NC(C)(C)C)cc1Cl` (stereo not given): the IC50 is 0.41 µM in [1] and 2.04 µM in assay [2]. Moreover, the outcome in assay [3], in assay [4], in assay [5] and in [6] was inactive. The AD50 in the assay filed under Mus musculus [7] amounted to 0.2 mg/kg; in the assay listed under Mus musculus [8], 7.2 mg/kg; in the assay filed under Mus musculus [9], 11 mg/kg; in the assay filed under Mus musculus [10], 10 mg/kg.

With `CC(NC(C)(C)C)C(=O)c1cccs1` (stereo not given), the outcome in assay [3], in assay [4], in assay [5] and in assay [6] was inactive. Moreover, the AD50 in the assay listed under Mus musculus [7] is 0.077 mg/kg. In addition, the AD50 entry in the assay listed under Mus musculus [8], in the assay filed under Mus musculus [9] and in the assay listed under Mus musculus [10] was “inactive” throughout.

Regarding `CC(C(=O)c1cccc(Cl)c1)N(C)C(C)(C)C` (stereo not given), the IC50 in assay [1] stood at 6 µM; in assay [2], 1.57 µM. Further, the result in assay [3], in assay [4], in assay [5] and in assay [6] was inactive. For the same compound, the results for the AD50 in the assay listed under Mus musculus [7] and in the assay listed under Mus musculus [8] were 0.46 mg/kg and 8.7 mg/kg, respectively. The AD50 entry in the assay listed under Mus musculus [9] and in the assay listed under Mus musculus [10] was “inactive” in each case.

With `CC(CNC(C)(C)C)C(=O)c1cccc(Cl)c1` (stereo not given), the result in assay [3], in assay [4], in assay [5] and in [6] was inactive. Also, the AD50 in the assay filed under Mus musculus [7] was 10.5 mg/kg; in the assay listed under Mus musculus [10] it was 16 mg/kg. For the same compound, the AD50 entry in the assay listed under Mus musculus [8] and in the assay listed under Mus musculus [9] was “inactive” throughout.

In assay [1], `COc1cccc(C(=O)C(C)NC(C)(C)C)c1` (stereo not given) gave an IC50 of 3.62 µM. For the same compound, the result in [3], in [4], in assay [5] and in assay [6] was inactive. In addition, in the assay filed under Mus musculus [7], the AD50 came to 1.6 mg/kg. The AD50 entry in the assay listed under Mus musculus [8], in the assay listed under Mus musculus [9] and in the assay filed under Mus musculus [10] was “inactive” throughout.

As for `Cc1cccc(C(=O)C(C)NC(C)(C)C)c1` (stereo not given), the IC50 in assay [2] turned out to be 6.2 µM. In addition, the result in assay [3], in [4], in [5] and in assay [6] was inactive. Besides, the AD50 in the assay listed under Mus musculus [7] came out at 0.05 mg/kg; in the assay filed under Mus musculus [8] it was 6.8 mg/kg; in the assay listed under Mus musculus [9] it was 4.3 mg/kg; in the assay listed under Mus musculus [10], 7.8 mg/kg.

Compound `CC(NC(C)(C)C)C(=O)c1cc(Cl)cc(Cl)c1` (stereo not given) had an IC50 in [2] of 14 µM. Also, the result in [3], in assay [4], in assay [5] and in [6] was inactive. Besides, the AD50 in the assay listed under Mus musculus [7] is 0.028 mg/kg; in the assay filed under Mus musculus [8], 4.3 mg/kg. In addition, the AD50 entry in the assay listed under Mus musculus [9] and in the assay filed under Mus musculus [10] was “inactive” throughout.

Consider `Cc1cc(C(=O)C(C)NC(C)(C)C)ccc1Br` (stereo not given), for which 7.25 µM corresponded to half-maximal inhibition in [2] (IC50). The outcome in assay [3], in assay [4], in assay [5] and in assay [6] was inactive. In the assay listed under Mus musculus [7], the AD50 turned out to be 0.015 mg/kg. For the same compound, the AD50 entry in the assay filed under Mus musculus [8], in the assay listed under Mus musculus [9] and in the assay filed under Mus musculus [10] was “inactive” in each case.

`CC(C(=O)c1cccc([N+](=O)[O-])c1)N1CCCCC1` (stereo not given): the IC50 in assay [1] is 10 µM. For the same compound, the result in [3], in assay [4], in assay [5] and in assay [6] was inactive. The AD50 entry in the assay listed under Mus musculus [7], in the assay filed under Mus musculus [8], in the assay filed under Mus musculus [9] and in the assay filed under Mus musculus [10] was “inactive” in each case.

`CCC(NC(C)(C)C)C(=O)c1cccc(Cl)c1` (stereo not given) gave an IC50 in [1] of 0.209 µM. For the same compound, the result in assay [3], in assay [4], in [5] and in assay [6] was inactive. The AD50 in the assay listed under Mus musculus [7] stood at 0.5 mg/kg; in the assay filed under Mus musculus [9], 11.7 mg/kg. Moreover, the AD50 entry in the assay listed under Mus musculus [8] and in the assay filed under Mus musculus [10] was “inactive” throughout.

`CC(NC1CCCC1)C(=O)c1cccc(Cl)c1` (stereo not given): the result in assay [3], in assay [4], in assay [5] and in assay [6] was inactive. In addition, the AD50 in the assay listed under Mus musculus [7] amounted to 0.014 mg/kg. Moreover, the AD50 result in the assay filed under Mus musculus [8], in the assay listed under Mus musculus [9] and in the assay listed under Mus musculus [10] was “inactive” throughout.

Take `CC(NC1CCCC1)C(=O)c1cccc([N+](=O)[O-])c1` (stereo not given): the outcome in assay [3], in assay [4], in assay [5] and in [6] was inactive. Further, the AD50 result in the assay listed under Mus musculus [7], in the assay listed under Mus musculus [8], in the assay filed under Mus musculus [9] and in the assay filed under Mus musculus [10] was “inactive” in each case.

Consider `CC(NC(C)(C)C)C(=O)c1cccc([N+](=O)[O-])c1` (stereo not given), for which the result in [3], in [4], in assay [5] and in [6] was inactive. Besides, the AD50 result in the assay filed under Mus musculus [7], in the assay listed under Mus musculus [8], in the assay listed under Mus musculus [9] and in the assay listed under Mus musculus [10] was “inactive” throughout.
